# Test results as given in US5589513A, “Pharmaceutical composition and process for the preparation thereof” (Chinoin Gyogyszer es Vegyeszeti Termekek Gyara Rt., priority 1991, dated 1996).
# Structures can show the parent of a compound that is named as a salt. Where two headings read alike, the source gives them in different places.
# Key:
# [1] = system: MPP^+ uptake to the striatatal synaptosones; experiment: MPP+ uptake to striatal synaptosomes; assay type: biochemical; conditions: for IC50: striatal synaptosomes; for uptake inhibitory potency: potential metabolites
# Experimental: (§1) 3.) The potential metabolites of deprenyl and p-fluoro-deprenyl, (methylamphetamine, amphetamine and p-fluoro-methylamphetamine, p-fluoro-amphetamine, respectively) have a significant uptake inhibitory potency; they can prevent in vivo the MPTP neurotoxicity without the development of a high degree of MAO inhibition. The tests were carried out according to the method of Heikilla [Nature, 311, 467-469 (1984)].
# [2] = system: NA uptake, rat brain synaptosomas, HYPOTHALAMUS; experiment: In vitro NA uptake inhibition on brain synaptosomes (hypothalamus); assay type: biochemical
# [3] = system: DA uptake, rat brain synaptosomas, STRIATUM; experiment: In vitro DA uptake inhibition on brain synaptosomes (striatum); assay type: biochemical
# DSP-4 neurotoxicity [4] = experiment: Interaction of deprenyl and p-fluoro-deprenyl metabolites with DSP-4 neurotoxicity; assay type: in vivo, rats; conditions: for prevention of DSP-4 induced neurotoxicity in vivo: dose of 1-5 mg/kg i.p., without development of MAO inhibition
# Experimental: The tests were carried out according to the method of Finnegan [Finnegan et al., Eur. J. Pharmacol., 184, 119-126, (1990)].
# DSP-4 neurotoxicity [5] = experiment: Inhibition of DSP-4 neurotoxicity after oral deprenyl formulations (hippocampus noradrenaline, survival); assay type: in vivo; conditions: 3 mg/kg p.o.; 50 mg/kg DSP-4 ip.; rats
# Experimental: The inhibition of DSP-4 neurotoxicity was measured in rats. For treating rats the schedule of Finnegan was followed [Finnegan et al., Eur. J. Pharmacol., 184, 119-126, (1990)].
# Wistar male rats, weighing 170-200 g were used. Animals were housed six to a cage under constant temperature (22° C.), in a room illuminated 12 h per day. Food and water were freely available. Rats were pretreated orally with 3 mg/kg of the combination of example 3 (1 mg/kg "fast" (F)+2 mg/kg "slow" (S)), 1, 2, 4 and 8 hours before DSP-4 treatment (50 mg/kg; intraperitoneally).
# Each hippocampus of the rats […].
# MAO-A [6] = experiment: Inhibition of MAO activity in brain nucleus free homogenates, 14C-5-HT substrate; assay type: in vivo, domestic pig; conditions: pig; p. os 96 h; UG-111 48 h (patch 24 h); UG-167 72 h (patch 48 h); UG-191 96 h (patch 72 h)
# Experimental: (§2) MAO activity was measured radiometrically according to the methods of Wurtman and Axelrod [Biochem. Pharmacol. 12. 1414-19; (1963)] with a slight modification [K. Magyar in: Monoamine Oxidases and their Selective Inhibition, Ed.: K. Magyar, Pergamon Press, Akademiai Kiado, Budapest, 11-21; (1980)].
# MAO-A [7] = experiment: Inhibition of MAO activity in liver, 14C-5-HT substrate; assay type: in vivo, domestic pig; conditions: pig; times as for brain; where three numbers are printed, apparently single animals
# Experimental: as §2
# [8] = system: MPTP induced neuronal damage; conditions: literature; cited from earlier work
# DSP-4 induced toxicity = conditions: literature; cited from earlier work
# MPTP neurotoxicity = MPTP neurotoxicity (dopamine, DOPAC, HVA levels); assay type: in vivo; design: DOPAC: unit not given beside the values; conditions: for prevention of MPTP neurotoxicity in vivo: without a high degree of MAO inhibition
# Experimental: as §1
# [9] = Distribution of labelled deprenyl and p-fluoro-deprenyl in brain regions and plasma after oral administration; assay type: in vivo; conditions: rats, deprenyl […], p-fluoro-deprenyl 10 mg/kg
# Source text: The simultaneous presence and the equal quantities of the two labels indicate the unchanged molecule (the data relate to the molar concentrations calculated on the basis of the two labels).
# [10] = pretreatment 10 mg/kg i.p., DSP-4 50
# [11] = read-out: In vitro uptake inhibition DA STRIATUM
# [12] = pretreatment 1 mg/kg i.p., DSP-4 50
# [13] = pretreatment 5 mg/kg i.p., DSP-4 30
# [14] = 1. treatment MPTP, 2. treatment the substance (MPTP: phys.s.)
# [15] = 1. treatment MPTP, 2. treatment the substance (MPTP: phys.s.), % of physiological salt control
# [16] = 1. treatment MPTP, 2. treatment the substance (MPTP: phys.s.), time between treatments 30
# [17] = 1. treatment the substance, 2. treatment MPTP
# [18] = 1. treatment the substance, 2. treatment MPTP, % of physiological salt control
smiles,measurement,setting,value
"CC(N)Cc1ccc(F)cc1 (single isomer, unassigned; (+)) [(+)-p-F-amphetamine]",IC50,[1],0.1 µM
"CNC(C)Cc1ccc(F)cc1 (single isomer, unassigned; (+)) [(+)-p-F-metamphetamine]",IC50,[1],1.3 µM
same,IC50,[2]; listed as (+)-p-FLUORO-MA,7.7 µM
same,IC50,"[3]; read-out: In vitro uptake inhibition DA STRIATUM, listed as (+)-p-FLUORO-MA",23 µM
"CC(N)Cc1ccc(F)cc1 (single isomer, unassigned; (-)) [(-)-p-F-amphetamine]",IC50,[1],0.72 µM
"CNC(C)Cc1ccc(F)cc1 (single isomer, unassigned; (-)) [(-)-p-F-metamphetamine]",IC50,[1],1.3 µM
same,IC50,[2]; listed as (-)-p-FLUORO-MA,7.5 µM
same,IC50,"[3]; read-out: In vitro uptake inhibition DA STRIATUM, listed as (-)-p-FLUORO-MA",300 µM
same,Survival %,DSP-4 neurotoxicity [4]; [10],0%
"C#CCN(C)C(C)Cc1ccc(F)cc1 (single isomer, unassigned; (-)) [(-)-p-FLUORO-D]",IC50,[2],13 µM
same,IC50,[3]; [11],29 µM
C#CCN(C)[C@@H](C)Cc1ccc(F)cc1 [(+)-p-FLUORO-D],IC50,[2],6.1 µM
same,IC50,[3]; [11],16 µM
"C#CCN(C)[C@H](C)Cc1ccccc1 [(-)-deprenyl, (-)N-(-1-phenyl-isopropyl)-N-methyl-propinylamine-hydrochloride]",prevention of the neurotoxicity of DSP-4,DSP-4 neurotoxicity [5],can prevent
same,inhibition of MAO activity (%) brain 14C-5-HT,MAO-A [6],20.14 ± 6.0%
same,inhibition of MAO activity (%) liver 14C-5-HT,MAO-A [7],10.45 ± 6.4%
same,effect on MPTP induced neuronal damage,[8],can be prevented
CN[C@H](C)Cc1ccccc1 [(-)-metamphetamine],Na content of hippocampus in % ± S.D.,DSP-4 neurotoxicity [4]; [12],61 ± 3.5%
same,Survival %,DSP-4 neurotoxicity [4]; [12],100%
same,Na content of hippocampus in % ± S.D.,DSP-4 neurotoxicity [4]; [13],116 ± 2.1%
same,Survival %,DSP-4 neurotoxicity [4]; [13],63%
same,Survival %,DSP-4 neurotoxicity [4]; [10],0%
"NC/C(=C/F)CCc1ccc(F)cc1 [MDL 72974A, (E)-4-fluoro-beta-fluoro-ethylene benzene butamine]",effect on DSP-4 induced toxicity / NA depletion,DSP-4 induced toxicity,fails to prevent DSP-4 induced toxicity
"CN1CC=C(c2ccccc2)CC1 [MPTP, 1-methyl-4-phenyl-1,2,3,6-tetrahydropyridine]",DOPAC,MPTP neurotoxicity; [14],0.7 ± 0.04
same,HVA (homovanillic acid),MPTP neurotoxicity; [14],1.3 ± 0.07
same,DOPAC %,MPTP neurotoxicity; [15],77%
same,Dopamine %,MPTP neurotoxicity; [15],53%
same,HVA (homovanillic acid),MPTP neurotoxicity; [15],79%
same,Dopamine,MPTP neurotoxicity; [16],8.0 ± 0.5
OC1(c2ccc(Cl)cc2)c2ccccc2C2=NCCN21 (stereo not drawn) [Mazindol],DOPAC,MPTP neurotoxicity; [14],1.1 ± 0.08
same,DOPAC %,MPTP neurotoxicity; [15],122%
same,Dopamine %,MPTP neurotoxicity; [15],98%
same,Dopamine,MPTP neurotoxicity; [16],14.0 ± 0.8
same,effect on MPTP induced neuronal damage,[8],can be retarded
C#CCN(C)Cc1ccccc1 [Pargyline],DOPAC,MPTP neurotoxicity; [14],0.5 ± 0.04
same,HVA (homovanillic acid),MPTP neurotoxicity; [14],0.9 ± 0.09
same,DOPAC %,MPTP neurotoxicity; [15],55%
same,Dopamine %,MPTP neurotoxicity; [15],47%
same,HVA (homovanillic acid),MPTP neurotoxicity; [15],64%
same,Dopamine,MPTP neurotoxicity; [16],7.1 ± 0.6
same,DOPAC,MPTP neurotoxicity; [17],1.0 ± 0.06
same,HVA (homovanillic acid),MPTP neurotoxicity; [17],1.4 ± 0.06
same,Dopamine,"MPTP neurotoxicity; 1. treatment the substance, 2. treatment MPTP (pretreatment)",13.8 ± 0.5
same,DOPAC %,MPTP neurotoxicity; [18],111%
same,Dopamine %,MPTP neurotoxicity; [18],91%
same,HVA (homovanillic acid),MPTP neurotoxicity; [18],100%
CC(N)Cc1ccccc1 (stereo not drawn) [amphetamine],uptake inhibitory potency,[1],significant
same,prevention of MPTP neurotoxicity in vivo,MPTP neurotoxicity,can prevent
same,prevention of DSP-4 induced neurotoxicity in vivo,DSP-4 neurotoxicity [4],able to prevent
"CNCCCN1c2ccccc2CCc2ccccc21 [desipramine, 10,11-Dihydro-N-methyl-5-H-dibenz(6,7)azepine-5-propanamine]",effect on DSP-4 induced toxicity / NA depletion,DSP-4 induced toxicity,inhibit the NA-depleting effect of DSP-4
CC(N)Cc1ccc(F)cc1 (stereo not drawn) [p-fluoro-amphetamine],uptake inhibitory potency,[1],significant
same,prevention of MPTP neurotoxicity in vivo,MPTP neurotoxicity,can prevent
same,prevention of DSP-4 induced neurotoxicity in vivo,DSP-4 neurotoxicity [4],able to prevent
C#CCN(C)C(C)Cc1ccc(F)cc1 (stereo not drawn) [p-fluoro-deprenyl],time in which the unchanged compound was absorbed,[9],15 min
